This experiment has as its system CEM cells HIV-1 protection, formazan growth assay. The experiment can be described thus: NCI AIDS Antiviral Assay. The conditions noted are these: for IC50: measured here: growth of uninfected CEM cells. The method in brief:
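Five concentrations of each compound were applied to infected and uninfected human CEM cells. Protection from HIV-1 was judged from growth measured with a soluble formazan assay.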

SMILES strings stand for the structures. Calls of active or inactive are those of the source.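 How the source made its calls: active means compounds giving half or more protection of infected cells from virus-caused growth loss, again on retest; inactive means the rest.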 Where a SMILES comes first, the peptide text is derived from it. The star is where a group is joined. Cbz = O=C(OCc1ccccc1)*; OSu = O=C1CCC(=O)N1O*

`N#C/C(=C\c1ccccc1Cl)C(=O)c1ccccc1`: the EC50 is above 132 µM and the IC50 was determined as 13.2 µM.

Turning to `O=C1Nc2ccccc2/C1=C/c1cc(Cl)cc(Cl)c1O` (tested in a mixture with another compound), the EC50 was above 200 µM and the IC50 is 44.7 µM.

For the molecule `CCOC(=O)Cc1nc2c(N)ncnc2n1C1OC(COC(C)=O)C(OC(C)=O)C1OC(C)=O` (centres undefined), the EC50 was above 200 µM and the IC50 was above 200 µM.

For `O=c1[nH]c(=O)c2c([nH]1)[nH]c1ccccc12`, the EC50 was above 200 µM and the IC50 is above 200 µM.

Consider `CC(=O)Nc1ccc(S(=O)(=O)c2nnc(NC(C)=O)s2)cc1`, for which the EC50 was above 741 µM and the 50% inhibitory concentration (IC50) came to 331 µM.

Regarding `CC(C)C(NC(=O)OC(C)(C)C)C(=O)N1CC[C@@H](O)[C@H]1C(O)CC(=O)OC(C)(C)C` (some centres undefined), the EC50 is above 200 µM and the IC50 was above 200 µM.

Consider `CCCCCCCCSc1ncnc2[nH]ncc12`, for which the EC50 was above 79.4 µM and the IC50 worked out at 8.51 µM.

Turning to `CCCc1c(O)c2ccccc2[nH]c1=O`, the EC50 was above 200 µM and the IC50 was above 200 µM.

As for `Cc1ccc(S[C@@H](C)[C@@](O)(C(N)=O)c2ccccc2)cc1`, the EC50 was above 200 µM and the IC50 worked out at 30.2 µM.

Consider `C[N+]1(C)CN(c2ccccc2)C2(CCN(CCCC(=O)c3cccs3)CC2)C1=O`, for which the EC50 was above 200 µM and the half-maximal inhibitory concentration (IC50) was determined as 55 µM.

Take `COc1ccc2c3c([nH]c2c1[N+](=O)[O-])C(C)N(Cc1ccc([N+](=O)[O-])cc1)CC3` (centres undefined): the result was inactive.

Consider `Cc1ccc2[nH]c3[nH]c(=O)[nH]c(=O)c3c2c1`, for which the EC50 is above 200 µM and the IC50 was above 200 µM.

For the molecule `COc1ccc(/C=N/Nc2nc3ccccc3c(=O)n2-c2ccccc2)cc1`, the EC50 was above 200 µM and the IC50 is above 200 µM.

Take `Cc1nc2c(s/c(=N\N)n2-c2ccccc2)c(=O)[nH]1`: the EC50 was above 36.3 µM and the IC50 was above 36.3 µM.

Regarding `COC(=O)C1(Cc2ccc3c(c2)CCC3)Cc2cc3c(cc2C1=O)CCC3` (centres undefined), the EC50 was above 200 µM and the concentration for half-maximal inhibition (IC50) turned out to be 30.9 µM.

With `COc1ccc(C)cc1-c1ccc(-c2cc(C)ccc2OC)o1`, the EC50 is above 72.4 µM and the IC50 amounted to 58.9 µM.

For `O=C(Nc1ccc([N+](=O)[O-])cn1)Nc1ccccc1F`, the EC50 was above 200 µM and the IC50 is above 200 µM.

As to `CC(=O)OC12c3ccccc3C1CCCCCC21OCCCO1` (centres undefined), the EC50 is above 200 µM and the half-inhibitory concentration (IC50) was above 200 µM.

For `CCC1=C(C)c2cc3[n-]c(cc4nc(cc5[n-]c(cc1n2)c(C)c5CCC(=O)OC)C(CCC(=O)OC)=C4C)c(C)c3CC.[Cu+2]`, the result was inactive.

Turning to `Cc1cccc(-n2nc3c(=O)n(C)c(=O)n(C)c3nc2=O)c1`, the EC50 was above 200 µM and the IC50 is above 200 µM.

Take `CC(=O)OC1CCC2(COS(=O)(=O)c3ccc(C)cc3)C(=CCC3C2CCC2(C)C(C(C)CCCC(C)C)CCC32)C1` (centres undefined): the EC50 is above 200 µM and the 50% inhibitory concentration (IC50) is above 200 µM.

Turning to `O=C1c2ccccc2-c2c1c1ccccc1c(=O)n2Cc1ccco1`, the EC50 was above 11.5 µM and the IC50 was above 11.5 µM.

With `O=C1CN(C2CCCCC2)CC(=O)N2C(c3ccccc3)CCCN12` (centres undefined), the EC50 was above 200 µM and the IC50 is above 200 µM.

For the molecule `O=Nc1cc(S(=O)(=O)O)c2ccccc2c1O`, the EC50 is above 200 µM and the IC50 was above 200 µM.

For `CN(C)CCn1c2c(c3ccccc31)CCc1ccccc1-2`, the EC50 was above 200 µM and the IC50 is 15.5 µM.

`N#CCc1nc(-c2cc3c(ccc4ccccc43)oc2=O)cs1`: the EC50 is above 200 µM and the half-maximal inhibitory concentration (IC50) came out at 178 µM.

With `O=[N+]([O-])c1ccc(-n2nnc(C3=NCCCN3)c2-c2ccc(Cl)cc2)cc1`, the EC50 was 1.38 µM and the IC50 came out at 148 µM.

As to `COc1ccccc1C1C2=C(COC2=O)OC(C)(C)Oc2cc3c(cc21)OCO3` (centres undefined), the outcome was inactive.

Take `O=C(O)/C(O)=C1/C=C(c2ccccc2)c2ccccc21`: the outcome was inactive.

With `CCCC(=O)Nc1ccc(C2=NNC(=O)C3CC23)cc1` (centres undefined), the EC50 is above 200 µM and the IC50 is above 200 µM.

Regarding `COc1ccc2c(c1)C1C(CO2)C(c2ccccc2)=NN1c1ccccc1` (centres undefined), the EC50 is above 20.4 µM and the IC50 is above 20.4 µM.

As to `COC(=O)C1=C(C(=O)OC)C2(C3=C(C)C(=O)c4ccccc43)CCC1(C)O2` (centres undefined), the EC50 was above 97.7 µM and the IC50 was found to be 52.5 µM.

For `O=C1OC(c2ccccc2)c2ccsc2-n2cccc21` (centres undefined), the EC50 was above 200 µM and the half-maximal inhibitory concentration (IC50) is 123 µM.

`BrC12C3C4C5C(C(C43)C13OCCO3)C52` (centres undefined): the EC50 is above 708 µM and the IC50 was above 708 µM.

With `Cc1cc(C(C)(C)C)oc(=O)c1NC(=O)c1ccccc1`, the EC50 was above 200 µM and the IC50 was 155 µM.

With `CCOC(=O)c1cc2c3c(c1)C(=O)CCN3CCC2=O`, the result was inactive.

For `O=[N+]([O-])c1ccc(C2CC3(c4ccccc4)ON=C(c4ccccc4)N3c3ccccc3S2)cc1` (centres undefined), the EC50 was above 200 µM and the IC50 was determined as 102 µM.

With `C(=C\c1cc(-c2ccc3ccccc3n2)nc2ccc3ccccc3c12)/c1ccc2ccccc2n1`, the EC50 was above 200 µM and the IC50 is above 200 µM.

Consider `CSc1nnc(N(C(C)C)C(C)C)c2nc[nH]c12`, for which the EC50 was above 200 µM and the IC50 is above 200 µM.

For the molecule `O=C(Cc1ccccc1)N/N=C(/c1nc2ccc([N+](=O)[O-])cc2[nH]c1=O)C(O)c1ccc(C(O)/C(=N/NC(=O)Cc2ccccc2)c2nc3ccc([N+](=O)[O-])cc3[nH]c2=O)cc1` (centres undefined), the EC50 is above 155 µM and the IC50 worked out at 52.5 µM.

Take `CC(=O)Nc1ccc(NS(=O)(=O)c2ccc3nc(C)n(NS(=O)(=O)c4ccc(NC(C)=O)cc4)c(=O)c3c2)cc1`: the EC50 was above 200 µM and the IC50 is above 200 µM.

With `CCOC(=O)C(NC(=O)CC(C)C)(N1CCN(c2cc3c(cc2F)c(=O)c(C(=O)O)cn3C2CC2)CC1)C(F)(F)F` (centres undefined), the EC50 was above 200 µM and the IC50 stood at 1.91 µM.

For the molecule `CC(NC(=O)C(NC(=O)OCc1ccccc1)C(C)C)C(=O)NCC(=O)ON1C(=O)CCC1=O` (stereo not drawn) (Cbz-Val-Ala-Gly-OSu; configuration not given here), the EC50 was above 100 µM and the IC50 is above 100 µM.

Take `Cc1cc(=O)[nH]c(NN2C(Cl)C(=O)C2c2ccco2)n1` (centres undefined): the EC50 is above 17.8 µM and the IC50 was above 17.8 µM.

With `CN1C(=O)C(O)CC1c1cccc(F)c1` (centres undefined), the EC50 was above 200 µM and the IC50 was above 200 µM.

With `N#CC1CC12c1ccccc1C(=O)c1ccccc12` (centres undefined), the EC50 is 135 µM and the IC50 turned out to be 145 µM.

Turning to `COC(=O)c1cc(C(=O)c2cc(C(=O)OC)c(OC)c(Br)c2C)c(C)c(Br)c1OC`, the EC50 is above 200 µM and the IC50 was above 200 µM.

In the case of `CC(=O)NC1C(OCc2ccccc2)OC(CO)C(O)C1OCC(=O)N1CCCC1C(=O)N[C@@H](CCC(=O)NCCNCCNc1c2ccccc2nc2cccc([N+](=O)[O-])c12)C(N)=O` (some centres undefined), the EC50 is above 100 µM and the IC50 was 1.51 µM.

Consider `CCC1CCN=C(NS(=O)(=O)c2cc(C)c(Cl)cc2S)N1` (centres undefined), for which the EC50 was above 200 µM and the IC50 came out at 39.8 µM.

With `COc1ccc(C(O)/C(=N\NC(N)=S)c2nc3ccc([N+](=O)[O-])cc3[nH]c2=O)cc1OC` (centres undefined), the EC50 is above 288 µM and the IC50 was above 288 µM.

Turning to `O=C(CCc1n[nH]c(=S)o1)Nc1ccc(Cl)cc1Cl`, the EC50 was above 31.6 µM and the IC50 is above 31.6 µM.

For `CCCC(CCC(=O)O)(CCC(=O)O)[N+](=O)[O-]`, the result was inactive.

For the molecule `CC(=O)CCN1CC2CN=NC2(C#N)C1` (centres undefined), the EC50 is above 200 µM and the IC50 came to 46.8 µM.

With `O=C(c1ccc(Cl)cc1)c1ccc(OCC(=O)N2CCN(c3ccccc3)CC2)cc1`, the EC50 is above 12 µM and the 50% inhibitory concentration (IC50) was above 12 µM.

Take `COc1cc2cc3c4c(cc(OC)c(OC)c4c2cc1OC)CCN3C(=O)CCCC(=O)O`: the EC50 was above 200 µM and the IC50 stood at 110 µM.

As to `N#CC1CCCCOCCOCCOCCOCCOCCCCCC1=O` (centres undefined), the result was inactive.

On to `O=c1cc(CO)oc(C(O)c2ccccc2)c1O` (centres undefined), for which the EC50 was above 200 µM and the 50% inhibitory concentration (IC50) is above 200 µM.

Consider `CC(=O)CC(O)(C(F)(F)Cl)C(F)(Cl)Cl` (centres undefined), for which the EC50 is above 200 µM and the IC50 is above 200 µM.

In the case of `O=C(CCCN1CCC2(CC1)C(=NC1CCCCC1)NC(=O)N2c1ccccc1)c1ccc(F)cc1`, the EC50 was above 200 µM and the IC50 was found to be 93.3 µM.

With `CN1C=CC(C(C(N)=O)c2ccccc2)c2ccccc21` (centres undefined), the EC50 is above 200 µM and the IC50 came to 178 µM.

`NC(=O)c1ncn(C2OC(CO)C(O)C2O)c1NC(=S)NC(=O)c1ccccc1` (centres undefined): the EC50 is above 589 µM and the IC50 is above 589 µM.

In the case of `C[C@]12CCCC(=O)C1C[C@H](C(=O)O)CC2` (some centres undefined), the outcome was inactive.

For `Cc1ccc2c(c1)nc(N)n[n+]2[O-]`, the EC50 was above 100 µM and the IC50 is above 100 µM.

In the case of `c1ccc2cc3c(cc2c1)Cn1c-3nc2ccccc21`, the EC50 is above 200 µM and the IC50 was above 200 µM.

Consider `O=c1n(-c2ccccc2)c(=O)n(-c2ccccc2)c(=O)n1-c1ccccc1`, for which the EC50 was above 200 µM and the IC50 is above 200 µM.

For `CC(O[Si](C)(C)C(C)(C)C)[C@H](NC(=O)OCC(Cl)(Cl)Cl)C(=O)O` (some centres undefined), the EC50 was above 617 µM and the IC50 is above 100 µM.

`CC(=O)C(=Cc1cccc([N+](=O)[O-])c1)C(C)=O`: the EC50 is above 155 µM and the IC50 was found to be 20.4 µM.

Regarding `COc1ccc(N=NC(=O)NC(Cc2ccccc2)C(=O)O)cc1` (centres undefined), the EC50 is above 200 µM and the IC50 came out at 20 µM.

As to `Cc1ccc(S(=O)(=O)N/N=C2/C3CC4CCC2C4C3)cc1` (centres undefined), the EC50 was above 200 µM and the IC50 is above 200 µM.

On to `CCOC(=O)c1c(N2CCCC2)nsc1Nc1ccccc1`, for which the EC50 was above 200 µM and the IC50 was found to be 145 µM.

`CCCCc1c2c(nc3c1CCC/C3=C\c1ccccc1)C(=O)CCC2`: the EC50 was above 5.75 µM and the IC50 was above 5.75 µM.

Usually EC50 stands for the concentration at which the effect is half-maximal. Broadly, the IC50 is the concentration needed to halve the response being measured. Lower therefore signals higher potency.

The values are drawn from PubChem BioAssay AID179 (DTP/NCI, 2004).
